Calls of active or inactive are those of the source. The rule behind the calls is not given here.
How the values were obtained:
MCF7 [1] = experiment: Induction of cell cycle arrest in human MCF7 cells assessed as accumulation of cells at G2/M phase at 2 uM incubated for 24 hrs by PI/RNase staining based flow cytometric analysis (reference value: 20.8 %); format: functional
MCF7 [2] = experiment: Induction of apoptosis in human MCF7 cells assessed as early apoptotic cells at 1 uM incubated for 24 hrs by Annexin V-FITC/PI double staining based flow cytometric analysis (reference value: 1.56 %); format: functional
MCF7 [3] = experiment: Induction of cell cycle arrest in human MCF7 cells assessed as accumulation of cells at S phase at 1 uM incubated for 24 hrs by PI/RNase staining based flow cytometric analysis (reference value: 26.4 %); format: functional
MCF7 [4] = experiment: Induction of apoptosis in human MCF7 cells assessed as viable cells at 1 uM incubated for 24 hrs by Annexin V-FITC/PI double staining based flow cytometric analysis (reference value: 83.2 %); format: functional; conditions: read-out: Activity
MCF7 [5] = experiment: Induction of cell cycle arrest in human MCF7 cells assessed as accumulation of cells at G2/M phase at 0.5 uM incubated for 24 hrs by PI/RNase staining based flow cytometric analysis (reference value: 20.8 %); format: functional
MCF7 [6] = experiment: Induction of apoptosis in human MCF7 cells assessed as necrotic cells at 0.5 uM incubated for 24 hrs by Annexin V-FITC/PI double staining based flow cytometric analysis (reference value: 3.44 %); format: functional
MCF7 [7] = experiment: Induction of apoptosis in human MCF7 cells assessed as viable cells at 0.5 uM incubated for 24 hrs by Annexin V-FITC/PI double staining based flow cytometric analysis (reference value: 83.2 %); format: functional; conditions: read-out: Activity
MCF7 [8] = experiment: Induction of cell cycle arrest in human MCF7 cells assessed as accumulation of cells at S phase at 0.5 uM incubated for 24 hrs by PI/RNase staining based flow cytometric analysis (reference value: 26.4 %); format: functional
[9] = test system: Trastuzumab-resistant JIMT-1 cell; experiment: Inhibition of AKT phosphorylation in human Trastuzumab-resistant JIMT-1 cells at 1 uM cotreated with trastuzumab by Western blot analysis; format: cell-based
MCF7 [10] = experiment: Inhibition of colony formation in human MCF7 cells assessed as decrease in colonies incubated for 10 days with replacement of medium for every 3 days by crystal violet staining based assay; format: functional, cell-based; conditions: dose 0.5-2 µM, time 10.0 day
MCF7 [11] = experiment: Induction of cell cycle arrest in human MCF7 cells assessed as accumulation of cells at G1 phase at 2 uM incubated for 24 hrs by PI/RNase staining based flow cytometric analysis (reference value: 52.7 %); format: functional
MCF7 [12] = experiment: Inhibition of cell migration in human MCF7 cells incubated for 12 to 24 hrs by wound healing assay; format: functional, cell-based; conditions: dose 1-4 µM, time 12-24 hrs
MDA-MB-231 = experiment: Antiproliferative activity against human MDA-MB-231 cells assessed as inhibition of cell proliferation incubated for 48 hrs by MTT assay; format: functional, cell-based; conditions: MDA-MB-231, 48 h
MCF7 [13] = experiment: Induction of autophagy in human MCF7 cells incubated for 24 hrs by MDC probe based confocal microscopy analysis; format: functional, cell-based; conditions: dose 0.5-2 µM
MCF7 [14] = experiment: Antiproliferative activity against human MCF7 cells assessed as inhibition of cell proliferation incubated for 48 hrs by MTT assay; format: functional, cell-based; conditions: MCF7, 48 h
JIMT-1 = experiment: Synergistic antiproliferative activity against human JIMT-1 cells assessed inhibition of cell growth at 0.25 to 1 uM by MTT assay; format: functional, cell-based; conditions: dose 0.25-1 µM
MCF7 [15] = experiment: Induction of cell cycle arrest in human MCF7 cells assessed as accumulation of cells at G2/M phase at 1 uM incubated for 24 hrs by PI/RNase staining based flow cytometric analysis (reference value: 20.8 %); format: functional
MCF7 [16] = experiment: Induction of apoptosis in human MCF7 cells assessed as necrotic cells at 1 uM incubated for 24 hrs by Annexin V-FITC/PI double staining based flow cytometric analysis (reference value: 3.44 %); format: functional
[17] = target: Serine/threonine-protein kinase mTOR (Homo sapiens) (UniProt P42345); experiment: Inhibition of mTOR phosphorylation in human MCF7 cells incubated for 24 hrs by Western blot analysis; format: cell-based; conditions: dose 0.5-2 µM
MCF7 [18] = experiment: Induction of apoptosis in human MCF7 cells assessed as early apoptotic cells at 0.5 uM incubated for 24 hrs by Annexin V-FITC/PI double staining based flow cytometric analysis (reference value: 1.56 %); format: functional
MCF7 [19] = experiment: Induction of cell cycle arrest in human MCF7 cells assessed as accumulation of cells at G1 phase at 1 uM incubated for 24 hrs by PI/RNase staining based flow cytometric analysis (reference value: 52.7 %); format: functional
[20] = Toxicity in female BALB/c mouse xenografted with human MCF7 cells assessed as body weight loss at 5 mg/kg, iv measured daily for 14 days; format: organism-based; conditions: in vivo, 336 h, time 14 day
MCF7 [21] = experiment: Antitumor activity against human MCF7 cells xenografted in female BALB/c mouse assessed as tumor growth inhibition at 5 mg/kg, iv administered daily for 14 days relative to control; format: functional; conditions: MCF7, 336 h, time 14 day, read-out: TGI
MCF7 [22] = experiment: Induction of apoptosis in human MCF7 cells assessed as early apoptotic cells at 2 uM incubated for 24 hrs by Annexin V-FITC/PI double staining based flow cytometric analysis (reference value: 1.56 %); format: functional
[23] = Antiproliferative activity against human Trastuzumab-resistant JIMT-1 cells at 0.5 uM by MTT assay relative to control; format: functional, Trastuzumab-resistant JIMT-1 cell
[24] = target: Serine/threonine-protein kinase mTOR (Homo sapiens) (UniProt P42345); experiment: Inhibition of mTOR phosphorylation in human Trastuzumab-resistant JIMT-1 cells at 1 uM cotreated with trastuzumab by Western blot analysis; format: cell-based; conditions: Trastuzumab-resistant JIMT-1 cell
[25] = Antiproliferative activity against human Trastuzumab-resistant JIMT-1 cells at 0.5 uM in presence of trastuzumab by MTT assay relative to control; format: functional, Trastuzumab-resistant JIMT-1 cell
HeLa [26] = experiment: Antiproliferative activity against human HeLa cells assessed as inhibition of cell proliferation incubated for 48 hrs by MTT assay; format: functional, cell-based
[27] = test system: Trastuzumab-resistant JIMT-1 cell; experiment: Inhibition of AKT phosphorylation in human Trastuzumab-resistant JIMT-1 cells at 1 uM by Western blot analysis; format: cell-based
HeLa [28] = experiment: Inhibition of cell migration in human HeLa cells incubated for 12 to 24 hrs by wound healing assay; format: functional, cell-based; conditions: dose 1-4 µM, time 12-24 hrs
MCF7 [29] = experiment: Inhibition of AKT phosphorylation in human MCF7 cells incubated for 24 hrs by Western blot analysis; format: cell-based; conditions: dose 0.5-2 µM
MCF7 [30] = experiment: Induction of apoptosis in human MCF7 cells assessed as late apoptotic cells at 0.5 uM incubated for 24 hrs by Annexin V-FITC/PI double staining based flow cytometric analysis (reference value: 11.8 %); format: functional
MCF7 [31] = experiment: Induction of apoptosis in human MCF7 cells assessed as late apoptotic cells at 1 uM incubated for 24 hrs by Annexin V-FITC/PI double staining based flow cytometric analysis (reference value: 11.8 %); format: functional
MCF7 [32] = experiment: Induction of apoptosis in human MCF7 cells assessed as viable cells at 2 uM incubated for 24 hrs by Annexin V-FITC/PI double staining based flow cytometric analysis (reference value: 83.2 %); format: functional; conditions: read-out: Activity
MCF7 [33] = experiment: Induction of cell cycle arrest in human MCF7 cells assessed as accumulation of cells at G1 phase at 0.5 uM incubated for 24 hrs by PI/RNase staining based flow cytometric analysis (reference value: 52.7 %); format: functional
[34] = target: Serine/threonine-protein kinase mTOR (Homo sapiens) (UniProt P42345); experiment: Inhibition of mTOR phosphorylation in human Trastuzumab-resistant JIMT-1 cells at 1 uM by Western blot analysis; format: cell-based; conditions: Trastuzumab-resistant JIMT-1 cell
MCF7 [35] = experiment: Induction of cell cycle arrest in human MCF7 cells assessed as accumulation of cells at S phase at 2 uM incubated for 24 hrs by PI/RNase staining based flow cytometric analysis (reference value: 26.4 %); format: functional
MCF7 [36] = experiment: Induction of apoptosis in human MCF7 cells assessed as late apoptotic cells at 2 uM incubated for 24 hrs by Annexin V-FITC/PI double staining based flow cytometric analysis (reference value: 11.8 %); format: functional
MCF7 [37] = experiment: Induction of ROS generation in human MCF7 cells assessed as increase in intracellular ROS level at 0.5 to 2 uM incubated for 24 hrs by DCFH-DA staining based microscopic analysis; format: functional, cell-based; conditions: dose 0.5-2 µM
MCF7 [38] = experiment: Induction of apoptosis in human MCF7 cells assessed as necrotic cells at 2 uM incubated for 24 hrs by Annexin V-FITC/PI double staining based flow cytometric analysis (reference value: 3.44 %); format: functional

C=C(C)[C@@H]1CC[C@]2(C(=O)O)CC[C@]3(C)[C@H](CC[C@@H]4[C@@]5(C)CC[C@H](OC(=O)N6CCN(C(=O)CCl)CC6)C(C)(C)[C@@H]5CC[C@]43C)[C@@H]12
Activity (MCF7 [1]): 27.2% | Activity (MCF7 [2]): 1.99% | Activity (MCF7 [3]): 19.1% | viability at 1 µM (MCF7 [4]): 74.9% | Activity (MCF7 [5]): 23.4% | Activity (MCF7 [6]): 2.49% | viability at 0.5 µM (MCF7 [7]): 79.7% | Activity (MCF7 [8]): 22% | inhibition [9]: Active | inhibition (MCF7 [10]): Dose-dependent-effect | Activity (MCF7 [11]): 53.4% | inhibition (MCF7 [12]): Dose-dependent-effect | IC50 (MDA-MB-231): 1660 nM | Activity (MCF7 [13]): Dose-dependent-effect | IC50 (MCF7 [14]): 1090 nM | Activity (JIMT-1): Active | Activity (MCF7 [15]): 24.3% | Activity (MCF7 [16]): 3.93% | inhibition [17]: Dose-dependent-effect | Activity (MCF7 [18]): 2.47% | Activity (MCF7 [19]): 56.4% | Activity [20]: Non-toxic | inhibition in vivo at 5 mg/kg (MCF7 [21]): 36% | Activity (MCF7 [22]): 2.72% | Activity [23]: 19.9% | inhibition [24]: Active | Activity [25]: 59% | IC50 (HeLa [26]): 1110 nM | inhibition [27]: Active | inhibition (HeLa [28]): Dose-dependent-effect | inhibition (MCF7 [29]): Dose-dependent-effect | Activity (MCF7 [30]): 15.3% | Activity (MCF7 [31]): 19.2% | viability at 2 µM (MCF7 [32]): 72.3% | Activity (MCF7 [33]): 54.7% | inhibition [34]: Active | Activity (MCF7 [35]): 19.8% | Activity (MCF7 [36]): 22% | Activity (MCF7 [37]): Active | Activity (MCF7 [38]): 2.93%

Source: ChEMBL document CHEMBL6114952, “Synthesis and antitumor effects of novel betulinic acid derivatives bearing electrophilic moieties” (Bioorg Med Chem, 2025)
